Where a name gives a salt, the structure may show the parent alone.

The target in the assay is Recombinant Human (rh) DPP1 (Homo sapiens, UniProt P53634). Briefly: Fluorescence Assay for Recombinant Human (rh) DPP1. To be noted: rhDPP1, substrate H-Gly-Arg-AMC, pH5.0, 22° C., pre-incubated 30-60 min; read-out: DPP1 activity, pIC50 (converted). In kind it is biochemical. The method, then: Fluorescence Assay for Recombinant Human (rh) DPP1
Chain of Recombinant Human (rh) DPP1 (P53634 231-394 limits assumed): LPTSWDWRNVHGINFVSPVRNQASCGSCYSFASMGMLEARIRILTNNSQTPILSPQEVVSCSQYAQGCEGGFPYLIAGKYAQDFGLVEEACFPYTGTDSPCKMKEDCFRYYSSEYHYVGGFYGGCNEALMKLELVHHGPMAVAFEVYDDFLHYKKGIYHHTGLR
Chain of Recombinant Human (rh) DPP1 (P53634 25-134 limits assumed): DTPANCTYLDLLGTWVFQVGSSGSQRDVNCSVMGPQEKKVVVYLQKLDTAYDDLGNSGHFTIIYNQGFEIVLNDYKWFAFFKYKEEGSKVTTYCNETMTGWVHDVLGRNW
Chain of Recombinant Human (rh) DPP1 (P53634 395-463 limits assumed): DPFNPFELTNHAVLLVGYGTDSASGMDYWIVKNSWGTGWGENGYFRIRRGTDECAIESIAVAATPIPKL
The activity of DPP1 was determined by measuring the enzymatic release of aminomethyl coumarin (AMC) from the peptide substrate (H-Gly-Arg-AMC), which leads to an increase in fluorescence intensity at λex=350 nm and λem=450 nm. The assay was carried out in black 384 well plates in a final volume of 50 μl at 22° C. The assay conditions contained the following: 25 mM piperazine buffer pH5.0; 50 mM NaCl, 5 mM DTT; 0.01% (v/v) Triton X-100; 100 μM H-Gly-Arg-AMC and rhDPP1 ([…]). […] A standard DPP1 inhibitor (vinyl sulfone, see below, or Example 24 from WO2009/074829) was used as a positive control in the assay. Routinely, inhibitors were pre-incubated with rhDPP1 for 30-60 min prior to the addition of the peptide substrate to start the reaction for a further 60 min at 22° C. After that the plates were immediately read in a fluorescence plate reader using the above emission and excitation wavelengths [modified from Kam, C M, Gotz, M G, Koot, G, McGuire, M J, Thiele, D L, Hudig, D & Powers, J C (2004). Arch Biochem Biophys, 427, 123-134 & McGuire, M J, Lipsky, P E & Thiele, D L (1992). Arch Biochem Biophys, 295, 280-288].
Regarding `COCCn1c(=O)sc2ccc(-c3ccc(C[C@@H](C#N)NC(=O)C4(N)CCOCC4)cc3)cc21` [Example 9, (S)-4-Amino-N-(1-cyano-2-(4-(3-(2-methoxyethyl)-2-oxo-2,3-dihydrobenzo[d]thiazol-5-yl)phenyl)ethyl)tetrahydro-2H-pyran-4-carboxamide trifluoroacetic acid salt], the IC50 was under 0.316 nM.

As for `COc1cc(-c2ccc(C[C@@H](C#N)NC(=O)C3(N)CCOCC3)cc2)ccn1` [Example 26, (S)-4-Amino-N-(1-cyano-2-(4-(2-methoxypyridin-4-yl)phenyl)ethyl)tetrahydro-2H-pyran-4-carboxamide], the IC50 was 1.26 nM. To `N#C[C@H](Cc1ccc(-c2ccc(S(=O)(=O)N3CCOCC3)cc2)cc1)NC(=O)C1(N)CCOCC1` [Example 27, (S)-4-Amino-N-(1-cyano-2-(4′-(morpholinosulfonyl)biphenyl-4-yl)ethyl)tetrahydro-2H-pyran-4-carboxamide trifluoroacetic acid salt] belongs 1.58 nM.

Turning to `N#Cc1cccc(-c2ccc(C[C@@H](C#N)NC(=O)C3(N)CCOCC3)cc2)c1` [Example 8, (S)-4-Amino-N-(1-cyano-2-(3′-cyanobiphenyl-4-yl)ethyl)tetrahydro-2H-pyran-4-carboxamide], the IC50 is 0.794 nM.

Regarding `Cc1ccc(-c2ccc(C[C@@H](C#N)NC(=O)C3(N)CCOCC3)cc2)cc1C#N` [Example 18, (S)-4-Amino-N-(1-cyano-2-(3′-cyano-4′-methylbiphenyl-4-yl)ethyl)tetrahydro-2H-pyran-4-carboxamide trifluoroacetic acid salt], the IC50 is 0.794 nM. On to `N#C[C@H](Cc1ccc(-c2ccc(C(F)(F)F)cc2)cc1)NC(=O)C1(N)CCOCC1` [Example 1, (S)-4-Amino-N-(1-cyano-2-(4′-(trifluoromethyl)biphenyl-4-yl)ethyl)tetrahydro-2H-pyran-4-carboxamide], for which the IC50 is 0.631 nM. On to `COc1ccc(-c2ccc(C[C@@H](C#N)NC(=O)C3(N)CCOCC3)cc2)cc1` [Example 20, (S)-4-Amino-N-(1-cyano-2-(4′-methoxybiphenyl-4-yl)ethyl)tetrahydro-2H-pyran-4-carboxamide], for which the IC50 is 0.794 nM. Consider `CN1Cc2cc(-c3ccc(C[C@@H](C#N)NC(=O)C4(N)CCOCC4)cc3)ccc2C1=O` [Example 31, (S)-4-Amino-N-(1-cyano-2-(4-(2-methyl-1-oxoisoindolin-5-yl)phenyl)ethyl)tetrahydro-2H-pyran-4-carboxamide], for which the IC50 is 1.58 nM. Turning to `N#C[C@H](Cc1ccc(-c2ccc(C(N)=O)c(F)c2)cc1)NC(=O)C1(N)CCOCC1` [Example 25, (S)-4-Amino-N-(2-(4′-carbamoyl-3′-fluorobiphenyl-4-yl)-1-cyanoethyl)tetrahydro-2H-pyran-4-carboxamide], the IC50 is 1.26 nM.

With `CN1Cc2cc(-c3ccc(C[C@@H](C#N)NC(=O)C4(N)CCOCC4)cc3)ccc2S1(=O)=O` [Example 16, (S)-4-Amino-N-{cyano-2-[4-(2-methyl-1,1-dioxido-2,3-dihydro-1,2-benzisothiazol-5-yl)phenyl]ethyl}tetrahydro-2H-pyran-4-carboxamide trifluoroacetic acid salt], the IC50 was 1 nM.

The values above are taken from patent US8193239B2, “Substituted 1-cyanoethylheterocyclylcarboxamide compounds” (AstraZeneca AB, priority 2009, dated 2012).
